Results as given in PMC7996082, “The translocator protein ligands as mitochondrial functional modulators for the potential anti-Alzheimer agents” (Journal of Enzyme Inhibition and Medicinal Chemistry, 2021).

Key:
[1] = MTT assay: HT22 cell viability with compound alone; type: cell-based, mouse; settings: mouse, HT22 cells; HT22 cell viability after 24 h of treatment with 5 μM compound, no Aβ
Protocol: To a clear 96-well plate (FALCON), the cultured HT-22 cells were seeded in a number of 5,000 per well 24 h prior to the assay. A solution of each test compound (5 µM, 25 µL) was added to each well. After 24 h of incubation at 37 °C, the cells were treated with a 10 µL of MTT solution (3–(4,5-dimethylthiazol-2-yl)-2,5-diphenyltetrazolium bromide, Sigma-Aldrich), incubated for 2 h at 37 °C, and were treated with 135 µL of MTT solubilising solution (10% Triton-X 100 in isopropanol with 0.1 M HCl) for 2 h at 37 °C. The % values of cell viability were determined by using the optical density (OD) values at 560 nm, and normalised by taking the vehicle control (5 µM of DMSO) as […].

CYP3A4 = target: T1, CYP3A4 (Homo sapiens, UniProt P08684); experiment: CYP inhibition assay (Vivid CYP450 screening kit); type: in vitro ADME; settings: 10 μM compound
T1 construct: purchased Invitrogen, Madison, WI, USA
T1 sequence (P08684 2-503 limits assumed): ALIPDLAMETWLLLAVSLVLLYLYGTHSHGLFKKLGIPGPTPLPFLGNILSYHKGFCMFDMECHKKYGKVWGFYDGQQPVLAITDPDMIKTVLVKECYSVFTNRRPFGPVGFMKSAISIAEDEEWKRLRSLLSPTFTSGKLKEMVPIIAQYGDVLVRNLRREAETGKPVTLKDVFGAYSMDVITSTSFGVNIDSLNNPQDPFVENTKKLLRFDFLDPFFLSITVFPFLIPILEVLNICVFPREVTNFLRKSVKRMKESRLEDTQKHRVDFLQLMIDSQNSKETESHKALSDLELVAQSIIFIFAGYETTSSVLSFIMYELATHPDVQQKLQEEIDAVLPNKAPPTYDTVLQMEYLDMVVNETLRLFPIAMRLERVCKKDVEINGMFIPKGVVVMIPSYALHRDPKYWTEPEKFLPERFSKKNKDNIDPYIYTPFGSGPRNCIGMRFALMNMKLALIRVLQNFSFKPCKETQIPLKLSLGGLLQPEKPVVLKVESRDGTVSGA
Protocol: (§1) Human CYP450 (CYP1A2, 2D6, 2C9, 2C19, and 3A4) activities were determined by using the Vivid® CYP450 screening kit (Invitrogen, Madison, WI, USA) in a clear 96-well plate. Five positive controls were used as 10 mM solutions in MeCN for five different CYP450 enzymes: CYP1A2 (α-naphthoflavone), CYP2D6 (quinidine), CYP2C9 (sulfaphenazole), CYP2C19 (lansoprazole), and CYP3A4 (ketoconazole). Each sample (test compounds, positive inhibition controls, and solvent controls) was added into each well with the Master Pre-Mix [CYP450 BACULOSOMES® Reagent (recombinant human CYP450 isozyme and rabbit NADPHP450 reductase) and Regeneration System (3.3 mM glucose-6-phosphate and 0.3 U/ml glucose-6-phosphate dehydrogenase in 100 mM potassium phosphate, pH 8.0)]. The mixture was incubated for 5 min at 37 °C, and the Vivid® CYP substrates and 0.1 mM NADP^+ buffer were added to initiate the CYP450 enzyme reaction. The % remaining activities of CYP450 were measured after 20 min by using a fluorescent plate reader (Flexstation® 3, Molecular Devices, USA).

CYP1A2 = target: T2, CYP1A2 (Homo sapiens, UniProt P05177); experiment: CYP inhibition assay (Vivid CYP450 screening kit); type: in vitro ADME; settings: 10 μM compound
T2 construct: purchased Invitrogen, Madison, WI, USA
T2 sequence (P05177 2-516 limits assumed): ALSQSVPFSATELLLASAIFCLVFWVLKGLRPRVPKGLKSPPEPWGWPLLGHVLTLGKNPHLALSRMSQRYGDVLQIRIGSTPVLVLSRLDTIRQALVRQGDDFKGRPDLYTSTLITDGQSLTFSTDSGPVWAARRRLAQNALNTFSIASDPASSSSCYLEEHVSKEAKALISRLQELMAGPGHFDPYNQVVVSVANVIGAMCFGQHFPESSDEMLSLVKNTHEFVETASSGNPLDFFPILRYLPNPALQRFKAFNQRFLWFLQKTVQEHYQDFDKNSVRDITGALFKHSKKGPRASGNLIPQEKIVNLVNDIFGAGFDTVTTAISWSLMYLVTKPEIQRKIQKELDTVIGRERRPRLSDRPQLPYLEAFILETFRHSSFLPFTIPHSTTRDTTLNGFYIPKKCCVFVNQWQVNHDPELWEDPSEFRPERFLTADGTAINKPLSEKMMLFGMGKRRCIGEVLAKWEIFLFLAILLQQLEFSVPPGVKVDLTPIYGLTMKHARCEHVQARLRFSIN
Protocol: as §1

CYP2C9 = target: T3, CYP2C9 (Homo sapiens, UniProt P11712); experiment: CYP inhibition assay (Vivid CYP450 screening kit); type: in vitro ADME; settings: 10 μM compound
T3 construct: purchased Invitrogen, Madison, WI, USA
T3 sequence (P11712 whole entry): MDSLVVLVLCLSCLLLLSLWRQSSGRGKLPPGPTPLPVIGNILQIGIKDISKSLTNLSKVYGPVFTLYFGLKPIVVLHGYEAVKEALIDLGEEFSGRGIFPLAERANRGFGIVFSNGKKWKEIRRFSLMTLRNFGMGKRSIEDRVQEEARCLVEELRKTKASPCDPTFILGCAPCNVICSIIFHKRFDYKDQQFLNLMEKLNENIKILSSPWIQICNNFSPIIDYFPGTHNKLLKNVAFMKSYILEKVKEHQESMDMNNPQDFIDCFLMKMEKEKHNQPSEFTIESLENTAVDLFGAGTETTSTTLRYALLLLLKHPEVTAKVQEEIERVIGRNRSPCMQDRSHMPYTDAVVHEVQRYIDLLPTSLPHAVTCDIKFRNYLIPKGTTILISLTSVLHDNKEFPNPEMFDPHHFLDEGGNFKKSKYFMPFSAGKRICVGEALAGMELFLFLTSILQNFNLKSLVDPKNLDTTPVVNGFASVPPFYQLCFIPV
Protocol: as §1

CYP2C19 = target: T4, CYP2C19 (Homo sapiens, UniProt P33261); experiment: CYP inhibition assay (Vivid CYP450 screening kit); type: in vitro ADME; settings: 10 μM compound
T4 construct: purchased Invitrogen, Madison, WI, USA
T4 sequence (P33261 whole entry): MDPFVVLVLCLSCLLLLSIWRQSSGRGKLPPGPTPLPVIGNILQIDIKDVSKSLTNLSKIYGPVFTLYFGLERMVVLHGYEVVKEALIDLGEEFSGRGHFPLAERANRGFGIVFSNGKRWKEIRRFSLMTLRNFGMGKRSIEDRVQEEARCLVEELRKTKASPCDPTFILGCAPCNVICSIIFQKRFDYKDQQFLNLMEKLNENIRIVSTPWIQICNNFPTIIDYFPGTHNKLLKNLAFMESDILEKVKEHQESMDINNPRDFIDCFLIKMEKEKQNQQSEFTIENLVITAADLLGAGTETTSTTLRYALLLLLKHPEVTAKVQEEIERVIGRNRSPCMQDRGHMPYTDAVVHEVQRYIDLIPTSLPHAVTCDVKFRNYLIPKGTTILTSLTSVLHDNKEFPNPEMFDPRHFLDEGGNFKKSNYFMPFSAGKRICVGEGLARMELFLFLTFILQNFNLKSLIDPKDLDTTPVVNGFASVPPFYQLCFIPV
Protocol: as §1

CYP2D6 = target: T5, CYP2D6 (Homo sapiens, UniProt P10635); experiment: CYP inhibition assay (Vivid CYP450 screening kit); type: in vitro ADME; settings: 10 μM compound
T5 construct: purchased Invitrogen, Madison, WI, USA
T5 sequence (P10635 whole entry): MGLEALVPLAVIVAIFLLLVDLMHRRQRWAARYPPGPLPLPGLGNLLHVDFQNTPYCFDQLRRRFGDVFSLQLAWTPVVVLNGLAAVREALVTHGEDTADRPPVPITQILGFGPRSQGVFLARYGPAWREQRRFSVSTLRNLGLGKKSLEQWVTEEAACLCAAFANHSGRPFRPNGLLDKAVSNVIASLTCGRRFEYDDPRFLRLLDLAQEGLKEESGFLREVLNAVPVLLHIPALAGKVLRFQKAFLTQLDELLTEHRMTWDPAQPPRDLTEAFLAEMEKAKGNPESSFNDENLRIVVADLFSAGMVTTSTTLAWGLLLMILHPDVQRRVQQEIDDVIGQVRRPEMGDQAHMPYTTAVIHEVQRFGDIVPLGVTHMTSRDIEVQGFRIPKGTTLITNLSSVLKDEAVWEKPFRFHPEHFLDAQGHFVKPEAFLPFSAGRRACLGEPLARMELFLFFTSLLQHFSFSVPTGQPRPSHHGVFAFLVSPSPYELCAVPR
Protocol: as §1

hERG channel = target: T6, hERG channel (Homo sapiens, UniProt Q12809); experiment: hERG inhibition assay (automated patch-clamp, CHO-K1 Tet-On hERG cells); type: cell-based; settings: patch-clamp, ± SD
T6 construct: host or cells: CHO-K1 Tet-On hERG cells
T6 sequence (Q12809 whole entry): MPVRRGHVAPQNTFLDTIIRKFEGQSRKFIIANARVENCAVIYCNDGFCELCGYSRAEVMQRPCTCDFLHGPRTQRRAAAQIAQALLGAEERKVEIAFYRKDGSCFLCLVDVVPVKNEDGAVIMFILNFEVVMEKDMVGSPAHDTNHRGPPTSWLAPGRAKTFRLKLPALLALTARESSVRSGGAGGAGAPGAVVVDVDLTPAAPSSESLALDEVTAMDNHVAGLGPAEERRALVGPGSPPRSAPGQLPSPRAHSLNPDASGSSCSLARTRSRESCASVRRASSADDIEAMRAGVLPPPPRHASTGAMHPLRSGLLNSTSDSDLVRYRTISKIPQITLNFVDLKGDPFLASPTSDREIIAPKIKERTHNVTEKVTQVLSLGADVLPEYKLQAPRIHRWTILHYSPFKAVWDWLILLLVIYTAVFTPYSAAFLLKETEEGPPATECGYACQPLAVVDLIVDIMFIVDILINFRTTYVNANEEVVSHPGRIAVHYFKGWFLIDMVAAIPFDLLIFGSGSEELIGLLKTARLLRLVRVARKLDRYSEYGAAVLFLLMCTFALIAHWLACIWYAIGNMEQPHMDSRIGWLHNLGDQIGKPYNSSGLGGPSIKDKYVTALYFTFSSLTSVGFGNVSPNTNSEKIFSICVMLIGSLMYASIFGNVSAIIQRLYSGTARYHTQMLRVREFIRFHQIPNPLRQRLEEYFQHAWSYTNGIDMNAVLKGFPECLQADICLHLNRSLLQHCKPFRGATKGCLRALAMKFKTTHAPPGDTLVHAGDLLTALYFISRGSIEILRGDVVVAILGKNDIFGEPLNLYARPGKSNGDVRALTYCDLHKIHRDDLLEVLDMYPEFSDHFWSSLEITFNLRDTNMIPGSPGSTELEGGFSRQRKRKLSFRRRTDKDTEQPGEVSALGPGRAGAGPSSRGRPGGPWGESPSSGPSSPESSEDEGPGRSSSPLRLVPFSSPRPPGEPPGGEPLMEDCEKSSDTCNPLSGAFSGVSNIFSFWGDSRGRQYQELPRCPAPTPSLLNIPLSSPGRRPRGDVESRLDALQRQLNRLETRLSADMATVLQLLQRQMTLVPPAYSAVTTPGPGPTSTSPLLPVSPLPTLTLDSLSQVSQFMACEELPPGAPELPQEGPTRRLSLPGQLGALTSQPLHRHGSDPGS
Protocol: For automated patch-clamp NPC-16 Patchliner (Nanion Technologies, München, Germany) recordings, CHO-K1 Tet-On hERG cells (IonGate Biosciences GmbH, Frankfurt, Germany) were plated into 100-mm cell culture dishes. Whole-cell currents were recorded with the intracellular solution containing: 50 mM KCl, 60 mM KF, 10 mM NaCl, 2 mM MgCl2, 20 mM EGTA and 10 mM HEPES (pH 7.2), and with the extracellular solution containing: 140 mM NaCl, 4 mM KCl, 2 mM CaCl2, 1 mM MgCl2, 5 mM Glucose and 10 HEPES (pH 7.4). To assist stable seal formations, the seal enhancer containing: 80 mM NaCl, 3 mM KCl, 35 mM CaCl2, 10 mM MgCl2 and 10 mM HEPES (pH 7.4) was used only at the seal formation step. Prior to the whole-cell recordings, the external seal enhancing solution was exchanged to the extracellular solution described above. hERG channel currents were recorded using the parallel EPC-10 patch-clamp amplifiers (HEKA Elektronik, Lambrecht/Pfalz, Germany), and low-pass filtered (10 kHz) with a 4-pole Bessel filter. Cell suspension and patch solutions were automatically added onto the four recording wells in the microfabricated disposable chip (NPC-16 Chip, Nanion Technologies, München, Germany). To obtain the inhibitory constants, hERG tail currents were evoked by repolarizing steps to −50 mV for 500 ms preceded by a 500-ms depolarisation potential of +20 mV at a holding potential of −80 mV with a 20-s sweep interval. Whole-cell currents were acquired and digitised at 5 kHz using Patchmaster (HEKA Elektronik, Lambrecht/Pfalz, Germany). The extracellular solution was exchanged to the extracellular solution containing each blocker via four pipette tips of NPC-16 Patchliner using a 4-fold volume of solution (40 µL) with a speed of 4 µL/s, and the exchanged blocker solution was applied for 100–200 s to the patch-clamped cells until blocker binding had reached equilibrium by monitoring hERG tail currents. Whole-cell recordings were analysed using the Patchmaster/Fitmaster (HEKA Elektronik, Lambrecht/Pfalz, Germany), IGOR Pro (WaveMetrics Inc., Portland, OR, USA), and the GraphPad Prism 4.0 (GraphPad Software, Inc., La Jolla, CA, USA) software.

[2] = Liver microsomal stability; type: in vitro ADME; settings: human, liver microsomes, 1 µM compound, 0.5 mg/mL microsomes, 30 min, 37 °C; read-out: Human Liver Microsomal Stability (% remaining after 30 min)
Protocol: Liver microsomes (human, dog, rat, and mouse; 0.5 mg/mL) were incubated with 1 µM of each test compound in the presence of potassium phosphate buffer (PPB) for 5 min at 37 °C. A solution of the NADPH regeneration system (#44332000, Oriental Yeast Co., Japan) was added to begin metabolic reactions of liver microsomes. The resulting mixtures were incubated for 30 min at 37 °C, and the reaction was terminated by the addition of a cold MeCN solution containing an internal standard (chlorpropamide). The mixture was separated by centrifugation (14,000 rpm for 5 min at 4 °C), and the supernatant was analysed by LC-MS/MS (Shimadzu Nexera XR system and TSQ vantage; Thermo Scientific).

Row | SMILES | viability at 24 h, 5 µM [1] | CYP450 (% remaining Activity at 10 μM) CYP3A4 (CYP3A4) | CYP450 (% remaining Activity at 10 μM) CYP1A2 (CYP1A2) | CYP450 (% remaining Activity at 10 μM) CYP2C9 (CYP2C9) | CYP450 (% remaining Activity at 10 μM) CYP2C19 (CYP2C19) | CYP450 (% remaining Activity at 10 μM) CYP2D6 (CYP2D6) | IC50 (hERG channel) | remaining at 0.5 h, 1 µM [2]
1 | CCCn1c(SCC(=O)Nc2ccc(OC)c(OC)c2)nc2sc3c(c2c1=O)CCN(C(C)=O)C3 [Compound 59] | 112% |  |  |  |  |  |  | 
2 | COc1ccc(NC(=O)CSc2nc3sc4c(c3c(=O)n2CC(C)C)CCN(C(C)=O)C4)cc1OC [Compound 60] | 96% |  |  |  |  |  |  | 
3 | CCOc1ccc(-n2c(SCC(=O)NCc3ccc(C)cc3)nc3sc4c(c3c2=O)CCN(C)C4)cc1 [Compound 54] | 107% |  |  |  |  |  |  | 
4 | CCOc1ccc(-n2c(SCC(=O)Nc3ccc(Cl)cc3)nc3sc4c(c3c2=O)CCN(C)C4)cc1 [Compound 53] | 89% |  |  |  |  |  |  | 
5 | COc1ccc(-n2c(SCC(=O)Nc3ccc(F)c(F)c3)nc3sc4c(c3c2=O)CCN(C(C)=O)C4)cc1 [Compound 27] | 92% |  |  |  |  |  |  | 
6 | CCCN(CCC)C(=O)CSc1nc2sc3c(c2c(=O)n1-c1ccc(OCC)cc1)CCN(C)C3 [Compound 56] | 108% | 30.9% | 71.9% | 44.5% | 30.5% | 89.2% | 12.9 ± 3.03 µM | 
7 | CCOc1ccc(-n2c(SCC(=O)N3CCC(c4ccccc4)CC3)nc3sc4c(c3c2=O)CCN(C(C)=O)C4)cc1 [Compound 46] | 86% | 81.2% | 84.4% | 6.7% | 16.5% | 72.3% |  | 6.6%
8 | CCOc1ccc(-n2c(SCC(=O)N3CCC(Cc4ccccc4)CC3)nc3sc4c(c3c2=O)CCN(C(C)=O)C4)cc1 [Compound 47] | 94% | 66.2% | 81.5% | 15.6% | 15.0% | 64.0% |  | 2.2%
9 | CCCCNC(=O)CSc1nc2sc3c(c2c(=O)n1-c1ccc(OCC)cc1)CCN(C(C)=O)C3 [Compound 43] | 79% |  |  |  |  |  |  | 
10 | CCCCN(CCCC)C(=O)CSc1nc2sc3c(c2c(=O)n1-c1ccc(OCC)cc1)CCN(C(C)=O)C3 [Compound 40] | 107% | 38.9% | 103.0% | 33.6% | 57.4% | 79.8% | 2.43 ± 0.48 µM | 
